According to ChEMBL document CHEMBL1147772, “The identification of potent and selective imidazole-based inhibitors of B-Raf kinase” (Bioorg Med Chem Lett, 2006):

Assays:
[1] = target: T1, Serine/threonine-protein kinase B-raf (Homo sapiens, UniProt P15056)
Description: Binding affinity at bRaf kinase in fluorescent ligand displacement assay

[2] = target: T1, Serine/threonine-protein kinase B-raf; remark: listed apart in the source
Description: Inhibition bRaf kinase activity

[3] = target: Tyrosine-protein kinase Lck (Homo sapiens) (UniProt P06239); test: Inhibition of Lck activity at 10 uM
[4] = target: MAP kinase-activated protein kinase 5 (Homo sapiens) (UniProt Q8IW41); test: Inhibition of PRAK activity at 10 uM
[5] = target: Glycogen synthase kinase-3 beta (Homo sapiens) (UniProt P49841); test: Inhibition of GSK3-beta activity at 10 uM
[6] = target: Serine/threonine-protein kinase Sgk1 (Homo sapiens) (UniProt O00141); test: Inhibition of SGK activity at 10 uM
[7] = target: Ribosomal protein S6 kinase alpha-5 (Homo sapiens) (UniProt O75582); test: Inhibition of MSK1 activity at 10 uM
[8] = target: Mitogen-activated protein kinase 8 (Homo sapiens) (UniProt P45983); test: Inhibition of JNK1 activity at 10 uM
[9] = target: RAC-alpha serine/threonine-protein kinase (Homo sapiens) (UniProt P31749); test: Inhibition of PKBalpha activity at 10 uM
[10] = target: MAP kinase-activated protein kinase 2 (Homo sapiens) (UniProt P49137); test: Inhibition of MAPKAPK2 activity at 10 uM
[11] = target: Mitogen-activated protein kinase 1 (Homo sapiens) (UniProt P28482); test: Inhibition of MAPK2 activity at 10 uM
[12] = target: Dual specificity mitogen-activated protein kinase kinase 1 (Homo sapiens) (UniProt Q02750); test: Inhibition of MEK1 activity at 10 uM
[13] = target: AMP-activated protein kinase, AMPK (Homo sapiens) (UniProt P54646+O43741+P54619+Q9UGJ0+Q9Y478+Q13131+Q9UGI9); test: Inhibition of AMPK activity at 10 uM; type: protein-complex assay
[14] = target: Phosphorylase kinase (Homo sapiens) (UniProt P15735+P46020+P46019+Q93100+Q16816); test: Inhibition of phosphorylase kinase activity at 10 uM; type: protein-complex assay
[15] = target: Ribosomal protein S6 kinase (P70S6K) (Homo sapiens) (UniProt Q9UBS0+P23443); test: Inhibition of p70S6K activity at 10 uM; type: protein-complex assay
[16] = target: cAMP-dependent protein kinase (PKA) (Homo sapiens) (UniProt P22694+P17612+P22612); test: Inhibition of PKA activity at 10 uM; type: protein assay
[17] = target: Mitogen-activated protein kinase 11 (Homo sapiens) (UniProt Q15759); test: Inhibition of p38-beta MAPK activity at 10 uM
[18] = target: Protein kinase C alpha type (Homo sapiens) (UniProt P17252); test: Inhibition of PKCalpha activity at 10 uM
[19] = target: Mitogen-activated protein kinase 12 (Homo sapiens) (UniProt P53778); test: Inhibition of p38-gamma MAPK activity at 10 uM
[20] = target: Serine/threonine-protein kinase Chk1 (Homo sapiens) (UniProt O14757); test: Inhibition of CHK1 activity at 10 uM
[21] = target: Casein kinase II (Homo sapiens) (UniProt P67870+P68400+P19784); test: Inhibition of CK2 activity at 10 uM; type: protein-complex assay
[22] = target: Rho-associated protein kinase 2 (Homo sapiens) (UniProt O75116); test: Inhibition of ROCK2 activity at 10 uM
[23] = target: Mitogen-activated protein kinase 13 (Homo sapiens) (UniProt O15264); test: Inhibition of p38delta MAPK activity at 10 uM

T1 sequence (P15056 whole entry): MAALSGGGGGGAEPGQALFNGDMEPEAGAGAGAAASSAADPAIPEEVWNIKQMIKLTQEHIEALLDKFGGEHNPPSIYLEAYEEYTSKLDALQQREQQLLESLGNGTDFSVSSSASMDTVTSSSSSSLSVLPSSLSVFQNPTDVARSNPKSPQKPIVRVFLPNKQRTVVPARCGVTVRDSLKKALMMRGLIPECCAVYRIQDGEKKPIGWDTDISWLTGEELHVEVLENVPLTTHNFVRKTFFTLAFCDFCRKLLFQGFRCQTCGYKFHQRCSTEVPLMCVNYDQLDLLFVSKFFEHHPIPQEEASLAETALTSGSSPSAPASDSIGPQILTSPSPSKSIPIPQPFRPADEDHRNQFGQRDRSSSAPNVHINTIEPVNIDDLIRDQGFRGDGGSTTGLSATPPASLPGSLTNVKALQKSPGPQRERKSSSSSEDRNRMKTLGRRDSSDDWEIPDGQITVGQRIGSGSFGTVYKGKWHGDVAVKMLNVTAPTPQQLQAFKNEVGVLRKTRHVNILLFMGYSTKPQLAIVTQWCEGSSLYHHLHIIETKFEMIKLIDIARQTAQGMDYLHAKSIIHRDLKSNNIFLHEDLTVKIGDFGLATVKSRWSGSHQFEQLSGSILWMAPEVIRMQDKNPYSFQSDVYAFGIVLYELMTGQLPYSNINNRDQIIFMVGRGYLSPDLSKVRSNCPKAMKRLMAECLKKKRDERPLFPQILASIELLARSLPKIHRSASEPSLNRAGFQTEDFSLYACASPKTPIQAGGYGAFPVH
Sequence of MAP kinase-activated protein kinase 2 (Homo sapiens) (P49137 whole entry, looked up): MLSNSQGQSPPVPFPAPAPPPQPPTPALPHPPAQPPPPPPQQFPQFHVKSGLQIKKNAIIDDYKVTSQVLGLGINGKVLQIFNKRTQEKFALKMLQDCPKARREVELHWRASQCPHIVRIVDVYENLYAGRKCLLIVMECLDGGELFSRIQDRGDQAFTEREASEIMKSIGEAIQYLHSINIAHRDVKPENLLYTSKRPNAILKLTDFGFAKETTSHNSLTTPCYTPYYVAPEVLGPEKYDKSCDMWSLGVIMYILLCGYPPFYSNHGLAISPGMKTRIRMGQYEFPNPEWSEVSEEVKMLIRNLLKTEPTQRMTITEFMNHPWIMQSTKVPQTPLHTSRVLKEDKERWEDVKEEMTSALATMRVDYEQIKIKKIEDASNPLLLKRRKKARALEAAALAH
Sequence of Mitogen-activated protein kinase 1 (Homo sapiens) (P28482 whole entry): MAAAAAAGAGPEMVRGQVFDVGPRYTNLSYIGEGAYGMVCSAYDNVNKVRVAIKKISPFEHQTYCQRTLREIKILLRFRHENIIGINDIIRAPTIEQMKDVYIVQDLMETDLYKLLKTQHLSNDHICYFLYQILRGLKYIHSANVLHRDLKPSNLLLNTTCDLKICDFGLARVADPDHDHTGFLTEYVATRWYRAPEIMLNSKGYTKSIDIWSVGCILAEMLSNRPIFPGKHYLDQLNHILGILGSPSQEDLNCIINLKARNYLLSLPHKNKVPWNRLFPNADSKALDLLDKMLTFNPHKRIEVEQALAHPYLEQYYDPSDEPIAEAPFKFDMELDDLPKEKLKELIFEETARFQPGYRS
Sequence of Ribosomal protein S6 kinase alpha-5 (Homo sapiens) (O75582 whole entry, looked up): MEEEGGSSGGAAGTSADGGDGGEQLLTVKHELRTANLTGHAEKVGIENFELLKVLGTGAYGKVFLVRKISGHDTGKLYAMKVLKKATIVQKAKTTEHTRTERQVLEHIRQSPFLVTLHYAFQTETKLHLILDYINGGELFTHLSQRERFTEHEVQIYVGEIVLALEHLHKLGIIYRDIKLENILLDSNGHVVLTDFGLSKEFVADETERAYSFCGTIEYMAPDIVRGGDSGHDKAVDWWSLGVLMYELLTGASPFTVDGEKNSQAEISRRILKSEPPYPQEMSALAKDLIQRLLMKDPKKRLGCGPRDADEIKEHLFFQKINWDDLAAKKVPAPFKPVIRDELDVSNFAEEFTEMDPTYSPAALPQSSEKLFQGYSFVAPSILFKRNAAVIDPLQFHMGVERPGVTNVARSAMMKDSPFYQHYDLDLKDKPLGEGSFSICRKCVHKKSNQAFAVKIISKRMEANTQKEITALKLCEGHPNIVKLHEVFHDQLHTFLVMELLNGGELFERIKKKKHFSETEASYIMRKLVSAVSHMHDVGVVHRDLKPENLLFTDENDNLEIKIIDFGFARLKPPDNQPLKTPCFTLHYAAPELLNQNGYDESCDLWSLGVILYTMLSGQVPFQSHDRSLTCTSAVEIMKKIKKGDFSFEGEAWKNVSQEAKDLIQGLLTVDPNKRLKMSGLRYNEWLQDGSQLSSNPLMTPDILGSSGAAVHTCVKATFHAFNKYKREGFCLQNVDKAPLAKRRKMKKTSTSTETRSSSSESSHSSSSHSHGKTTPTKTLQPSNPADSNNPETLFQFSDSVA
Sequence of Rho-associated protein kinase 2 (Homo sapiens) (O75116 whole entry, looked up): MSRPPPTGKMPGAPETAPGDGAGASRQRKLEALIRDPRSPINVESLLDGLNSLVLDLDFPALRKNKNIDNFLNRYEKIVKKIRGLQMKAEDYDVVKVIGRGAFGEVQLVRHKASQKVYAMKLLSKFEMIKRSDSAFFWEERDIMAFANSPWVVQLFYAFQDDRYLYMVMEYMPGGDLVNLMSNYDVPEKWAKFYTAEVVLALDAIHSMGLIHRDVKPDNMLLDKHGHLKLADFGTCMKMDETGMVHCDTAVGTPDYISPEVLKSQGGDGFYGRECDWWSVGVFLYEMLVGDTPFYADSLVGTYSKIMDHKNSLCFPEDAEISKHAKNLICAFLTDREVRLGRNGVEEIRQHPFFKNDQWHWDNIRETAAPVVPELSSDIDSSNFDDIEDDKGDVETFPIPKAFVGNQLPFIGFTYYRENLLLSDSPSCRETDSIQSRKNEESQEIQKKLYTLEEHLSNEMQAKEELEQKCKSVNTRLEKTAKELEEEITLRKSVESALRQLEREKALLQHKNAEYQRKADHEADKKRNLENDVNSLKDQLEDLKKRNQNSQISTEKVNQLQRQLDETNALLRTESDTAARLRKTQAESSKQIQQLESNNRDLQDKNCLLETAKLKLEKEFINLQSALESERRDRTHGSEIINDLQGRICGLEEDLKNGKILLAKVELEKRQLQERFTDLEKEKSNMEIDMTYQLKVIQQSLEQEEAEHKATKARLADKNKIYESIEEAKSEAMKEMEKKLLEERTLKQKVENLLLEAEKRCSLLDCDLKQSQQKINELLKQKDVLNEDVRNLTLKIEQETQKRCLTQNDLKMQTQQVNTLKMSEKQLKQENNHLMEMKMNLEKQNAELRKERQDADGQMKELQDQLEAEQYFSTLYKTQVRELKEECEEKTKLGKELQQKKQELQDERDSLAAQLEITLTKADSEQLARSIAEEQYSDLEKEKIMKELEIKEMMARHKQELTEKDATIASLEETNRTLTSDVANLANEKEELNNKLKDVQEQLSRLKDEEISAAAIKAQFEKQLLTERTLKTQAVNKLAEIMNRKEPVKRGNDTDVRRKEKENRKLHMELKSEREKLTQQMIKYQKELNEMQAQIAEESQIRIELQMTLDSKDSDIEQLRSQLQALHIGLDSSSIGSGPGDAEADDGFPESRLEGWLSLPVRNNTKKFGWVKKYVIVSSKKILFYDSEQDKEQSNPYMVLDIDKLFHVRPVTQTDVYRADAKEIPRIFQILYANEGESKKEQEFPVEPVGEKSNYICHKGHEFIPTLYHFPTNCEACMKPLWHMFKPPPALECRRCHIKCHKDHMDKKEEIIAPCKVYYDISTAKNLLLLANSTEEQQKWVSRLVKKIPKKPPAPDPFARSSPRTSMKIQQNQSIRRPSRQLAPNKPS
Sequence of Serine/threonine-protein kinase Chk1 (Homo sapiens) (O14757 whole entry): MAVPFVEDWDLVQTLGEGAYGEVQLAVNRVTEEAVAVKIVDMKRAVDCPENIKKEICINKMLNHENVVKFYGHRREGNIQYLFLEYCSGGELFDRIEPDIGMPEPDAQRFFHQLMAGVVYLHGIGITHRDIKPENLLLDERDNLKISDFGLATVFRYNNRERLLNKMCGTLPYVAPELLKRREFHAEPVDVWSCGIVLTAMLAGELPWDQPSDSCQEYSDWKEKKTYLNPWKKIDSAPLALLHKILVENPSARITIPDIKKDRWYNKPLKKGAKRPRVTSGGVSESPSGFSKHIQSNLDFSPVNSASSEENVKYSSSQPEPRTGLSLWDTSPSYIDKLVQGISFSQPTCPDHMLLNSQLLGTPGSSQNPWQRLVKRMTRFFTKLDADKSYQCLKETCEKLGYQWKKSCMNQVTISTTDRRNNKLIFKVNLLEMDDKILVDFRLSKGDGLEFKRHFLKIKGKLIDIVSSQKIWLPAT

Work on OCc1ccc(-c2[nH]c(-c3ccccc3)nc2-c2ccncc2)cc1Cl yielded a Kd [1] of 132 nM.
With OCc1cccc(-c2[nH]c(-c3ccccc3)nc2-c2ccncc2)c1 the IC50 [2] was 1590 nM and the Kd [1] was > 196 nM.
CC(C)(CNC(=O)Nc1ccc(Cl)cc1)c1nc(-c2ccc(Cl)c(O)c2)c(-c2ccncc2)[nH]1 gave an IC50 [2] of 13 nM and a Kd [1] of 21 nM.
In the case of Oc1cc(-c2[nH]c(-c3ccccc3)nc2-c2cccnc2)ccc1Cl, the Kd [1] is reported as > 200 nM.
Work on OCc1ccc(-c2[nH]c(-c3ccccc3)nc2-c2ccncc2)cc1O yielded a Kd [1] of 22 nM.
In the case of Oc1cc(-c2[nH]c(-c3cccnc3)nc2-c2ccncc2)ccc1Cl, the IC50 [2] is reported as 6 nM.
In the case of CN(C)CCCNC(=O)c1nc(-c2ccncc2)c(-c2ccc(Cl)c(O)c2)[nH]1, the IC50 [2] is reported as 40 nM and the Kd [1] is reported as 24 nM.
Oc1cc(-c2nc(-c3ccccc3)[nH]c2-c2ccncc2)ccc1Cl showed an inhibition [3] of 88%, an inhibition [4] of 19% and an inhibition [5] of 83%. The inhibition [6] was 2%, the inhibition [7] was 7% and the inhibition [8] was 0%. For the same compound, the inhibition [9] was 44%, the inhibition [10] was -1% and the inhibition [11] was -3%. For the same compound, the inhibition [12] was 5%, the inhibition [13] was 12% and the inhibition [14] was 17%. The inhibition [15] was 26%, the inhibition [16] was 12% and the inhibition [17] was 81%. The IC50 [2] was 10 nM, the inhibition [18] was 2% and the inhibition [19] was 5%. For the same compound, the Kd [1] was 2.4 nM, the inhibition [20] was 1% and the inhibition [21] was -3%. For the same compound, the inhibition [22] was 3%.
Compound O/N=C/c1ccc(-c2[nH]c(-c3ccccc3)nc2-c2ccncc2)cc1O has a Kd [1] of 27 nM.
O/N=C1/CCCc2cc(-c3[nH]c(-c4ccccc4)nc3-c3ccncc3)ccc21 was tested, and the Kd [1] was 17 nM.
Oc1cc(-c2[nH]cnc2-c2ccncc2)ccc1Cl was tested, and the IC50 [2] was 33 nM and the Kd [1] was 39 nM.
With CN(C)CCOc1ccc(-c2nc(-c3ccncc3)c(-c3ccc4c(c3)CC/C4=N\O)[nH]2)cc1 the inhibition [3] was 39%, the inhibition [4] was 18% and the inhibition [5] was 25%. The inhibition [6] was 17%, the inhibition [7] was 38% and the inhibition [8] was 19%. The inhibition [9] was 8%, the inhibition [10] was 9% and the inhibition [11] was 11%. It also gave an inhibition [12] of 14%, an inhibition [13] of 14% and an inhibition [14] of 3%. The inhibition [15] was 13%, the inhibition [16] was -2% and the inhibition [17] was 9%. The inhibition [18] was 10%, the inhibition [19] was 10% and the inhibition [23] was 10%. For the same compound, the inhibition [20] was 9%, the inhibition [21] was 8% and the inhibition [22] was 26%.
For N=C(NO)c1ccc(-c2[nH]c(-c3ccccc3)nc2-c2ccncc2)cc1, the Kd [1] was 53 nM.
Work on Oc1cc(-c2[nH]c(-c3ccco3)nc2-c2ccncc2)ccc1Cl yielded an IC50 [2] of 13 nM and a Kd [1] of 4.2 nM.
For OCc1ccc(-c2[nH]c(-c3ccccc3)nc2-c2ccncc2)cc1, the Kd [1] was 71 nM.
Oc1cc(-c2[nH]c(-c3ccccc3)nc2-c2ccnnc2)ccc1Cl was tested, and the Kd [1] was 87 nM.
Work on CC(C)(C)c1nc(-c2ccncc2)c(-c2ccc(Cl)c(O)c2)[nH]1 yielded an IC50 [2] of 12 nM and a Kd [1] of 2 nM.
O/N=C/c1ccc(-c2[nH]c(-c3ccccc3)nc2-c2ccncc2)cc1Cl showed a Kd [1] of 6 nM.
For COc1cccc(-c2nc(-c3ccccc3)[nH]c2-c2ccncc2)c1, the Kd [1] was > 196 nM.
OC1CCc2cc(-c3[nH]c(-c4ccccc4)nc3-c3ccncc3)ccc21 (stereo not given) was tested, and the Kd [1] was > 200 nM.
Oc1cc(-c2[nH]c(-c3ccccc3)nc2-c2ccncn2)ccc1Cl was tested, and the Kd [1] was 14 nM.
For C/C(=N\O)c1ccc(-c2[nH]c(-c3ccccc3)nc2-c2ccncc2)cc1, the Kd [1] was 11 nM.
Nc1nccc(-c2[nH]c(-c3ccccc3)nc2-c2ccc(Cl)c(O)c2)n1 showed a Kd [1] of 5.7 nM.
Oc1ccc(-c2nc(-c3ccccc3)[nH]c2-c2ccncc2)cc1 was tested, and the IC50 [2] was 339 nM and the Kd [1] was 316 nM.
In the case of Oc1cccc(-c2nc(-c3ccccc3)[nH]c2-c2ccncc2)c1, the Kd [1] is reported as 8 nM.
In the case of Oc1cc(-c2[nH]c(-c3ccccc3)nc2-c2ccccc2)ccc1Cl, the Kd [1] is reported as > 200 nM.
For CC(C)(CN)c1nc(-c2ccc(Cl)c(O)c2)c(-c2ccncc2)[nH]1, the IC50 [2] was 6 nM and the Kd [1] was 4.8 nM.
CC(C)(C)c1nc(-c2ccncc2)c(-c2ccc(F)cc2)[nH]1 was tested, and the IC50 [2] was 900 nM.
In the case of CC(C)(CNS(C)(=O)=O)c1nc(-c2ccc(Cl)c(O)c2)c(-c2ccncc2)[nH]1, the IC50 [2] is reported as 14 nM and the Kd [1] is reported as 10 nM.
O/N=C/c1ccc(-c2[nH]c(-c3ccccc3)nc2-c2ccncc2)cc1 was tested, and the Kd [1] was 5 nM.
